# Assay results published in patent US12479892B2, “Immunogenic protein against gonococcal infection” (priority 2019, dated 2025).
# Read-outs that look alike come from different tables or passages of the source.
# Experiments:
# NHBANg = NHBANg (Neisseria gonorrhoeae, UniProt B4RQT3); assay: SPR analysis of glycan binding; conditions: for SPR binding, in words: glycans 100 μM to 1 nM
# Experimental: Surface plasmon resonance (SPR) was performed using a BIAcore T200 instrument with recombinant NHBANg (100 μg/ml) immobilized on flow cells 2-4 by amine coupling on series S CMS sensor chips (GE Healthcare) as described previously. Flow cell 1 was used as the reference cell and immobilized with ethanolamine only. Single cycle kinetics was used to calculate the affinity (KD) of interactions with glycans run in 1:5 dilution series at concentrations between 100 μM to 1 nM. Results were analysed using BIAcore T200 software 2.0.2.
# NHBANm = NHBANm (Neisseria meningitidis serogroup B, UniProt Q7DD37); conditions: cited from earlier work
# [1] = tested on: N. gonorrhoeae 1291 ΔNHBA; assay: Normal human serum survival assay; type: cell-based, Neisseria gonorrhoeae; conditions: ΔNHBA mutant; 10% normal human serum, 60 minutes; 6 μM heparin pre-incubation
# Experimental: Resistance of N. gonorrhoeae to serum-mediated killing was tested as described previously with ˜10^4 CFU incubated in 10% (v/v) for 60 minutes at 37° C. and subsequently plated on GC agar. Bacteria were pre-incubated with 6 μM heparin 30 minutes where indicated. Bacterial survival was calculated as percent CFU (average from three replicate wells) relative to no treatment control.
# [2] = tested on: NHBA-heparin interactions; assay: SPR competition assay, blocking of NHBA-heparin interactions by sera; type: binding, Neisseria gonorrhoeae; conditions: 1:200 dilution of serum; heparin max 50 μM
# Experimental: SPR competition assays were performed using a Pall Pioneer FE. Competition assays were performed as previously described using NextStep injections in the OneStep assay builder. Pre- and post-immune NHBA mouse sera were used as the first injection (A), and heparin as the second injection (B). Binding of heparin (maximum OneStep concentration of 50 μM) to NHBA was compared with and without serum, and with 1:200 dilution of pre- or post-immune serum. Data was collected using the Pioneer Software package and analyzed using Qdat analysis software. The percentage blocking was calculated based on the relative RMax of the heparin injection without serum (Injection A=buffer; B=heparin) versus the serum subtracted (Injection A=pre/postimmune serum; B=buffer) binding of heparin in the presence of serum ((Injection A=pre/postimmune serum; B=heparin).
# [3] = tested on: N. gonorrhoeae adherence to cervical (tCX) epithelial cells; assay: Blocking of gonococcal adherence by sera, cervical epithelial cells; type: cell-based, Neisseria gonorrhoeae
# Experimental: (§1) Gonococcal adherence assays were performed as described previously with following modifications. Briefly, tCX and tUEC cell monolayers were infected (10 min at 37° C.) with approximately 1×10^5 CFU that was initially pre-incubated with serial dilutions of heat-inactivated mouse sera for 30 min at room temperature. Following the infection, cell monolayers were washed three times with warm HBSS to remove non-adherent bacteria and well contents plated onto GC agar. Results were calculated as the mean CFU from three replicate wells and presented as percentage of adherent bacteria relative to no antibody control. Statistical analysis performed with ANOVA and two-tailed Student's t-test. Each experiment was performed three times.
# [4] = tested on: N. gonorrhoeae adherence to urethral (tUEC) epithelial cells; assay: Blocking of gonococcal adherence by sera, urethral epithelial cells; type: cell-based, Neisseria gonorrhoeae
# Experimental: as §1
# [5] = single cycle kinetics, immobilised NHBANg, read-out: KD
molecule,measurement,setting,value
C[C@@H]1O[C@@H](O[C@@H]2[C@@H](O)[C@@H](O)[C@@H](CO)O[C@H]2O)[C@@H](O)[C@H](O)[C@@H]1O [H-disaccharide],"SPR binding, in words",NHBANg,No concentration dependent binding
"CC(=O)N[C@H]1[C@H](O[C@H]2[C@@H](O)[C@@H](CO)O[C@@H](O[C@H]3[C@H](O)[C@@H](O)C(O)O[C@@H]3CO)[C@@H]2O)O[C@H](CO)[C@@H](O[C@@H]2O[C@H](CO)[C@H](O)[C@H](O)[C@H]2O)[C@@H]1O (stereo partly drawn) [LNnT, lacto N-neotetraose]",Kd,NHBANg,4890 nM
CC(=O)N[C@H]1[C@H](O[C@H]2[C@@H](O)[C@@H](CO)O[C@@H](O[C@H]3[C@H](O)[C@@H](O)C(O)O[C@@H]3CO)[C@@H]2O)O[C@H](CO[C@]2(C(=O)O)C[C@H](O)[C@@H](NC(C)=O)[C@H]([C@H](O)[C@H](O)CO)O2)[C@@H](O)[C@@H]1O[C@@H]1O[C@H](CO)[C@H](O)[C@H](O)[C@H]1O (stereo partly drawn) [LSTb],Kd,NHBANg,2260 nM
CC(=O)N[C@H]1[C@H](O[C@H]2[C@@H](O)[C@@H](CO)O[C@@H](O[C@H]3[C@H](O)[C@@H](O)C(O)O[C@@H]3CO)[C@@H]2O)O[C@H](CO)[C@@H](O[C@@H]2O[C@H](CO[C@]3(C(=O)O)C[C@H](O)[C@@H](NC(C)=O)[C@H]([C@H](O)[C@H](O)CO)O3)[C@H](O)[C@H](O)[C@H]2O)[C@@H]1O (stereo partly drawn) [LSTc],Kd,NHBANg,240 nM
CC(=O)N[C@H]1C(O)O[C@H](CO)[C@@H](O[C@@H]2O[C@H](CO)[C@H](O)[C@H](O)[C@H]2O)[C@@H]1O[C@@H]1O[C@@H](C)[C@@H](O)[C@@H](O)[C@@H]1O (stereo partly drawn) [Lewis X],fold greater affinity than for sialyl Lewis X,NHBANg; ratio of KD,5 fold
same,Kd,NHBANg; [5],680 nM
CC(=O)N[C@H]1[C@H]([C@H](O)[C@H](O)CO)O[C@@](O[C@H]2[C@@H](O)[C@@H](CO)O[C@@H](O[C@H]3[C@H](O[C@@H]4O[C@@H](C)[C@@H](O)[C@@H](O)[C@@H]4O)[C@@H](NC(C)=O)C(O)O[C@@H]3CO)[C@@H]2O)(C(=O)O)C[C@@H]1O (stereo partly drawn) [sialyl Lewis X],Kd,"NHBANg; single cycle kinetics, immobilised NHBANg",3650 nM
"O=C[C@H](O)[C@@H](O)[C@H](O)[C@H](O)COP(=O)(O)O [β-Glc6P, glucose 6-phosphate]",Kd,NHBANm,56 nM
chondroitin 4-sulfate [chondroitin sulfate A],"SPR binding, in words",NHBANg,no concentration dependent binding
chondroitin 6-sulfate [chondroitin sulfate C],"SPR binding, in words",NHBANg,bound
chondroitin sulfate,Kd,NHBANg; [5],73 nM
dermatan sulfate [chondroitin sulfate B],"SPR binding, in words",NHBANg,no concentration dependent binding
heparan sulfate,Kd,NHBANg; [5],2790 nM
heparin,Kd,NHBANg; [5],4.4 nM
same,"survival in human serum after pre-treatment, in words",[1],increased survival
hyaluronan,"SPR binding, in words",NHBANg,No concentration dependent binding
"NHBA-c: C-terminal fragment of NHBA of N. gonorrhoeae 1291 (SEQ ID NO:2, 183 amino acids); antisera to it, adjuvant not stated at place (protein, Neisseria gonorrhoeae (strain 1291)) SLPAEIPLIPVNQADTLIVDGEAVSLTGHSGNIFAPEGNYRYLTYGAEKLPGGSYALRVQGEPAKGEMLAGTAVYNGEVLHFHMENGRPYPSGGRFAAKVDFGSKSVDGIIDSSDDLHMGTQKFKAAIDGNGFKGTWTENGGGDVSGRFYGPAGEEVAGKYSYRPTDAEKGGFGVFAGKKDRD",reduction of heparin binding to NHBA,[2],11%
same,"adherence of serum-treated gonococci, in words","[3]; cervical epithelial cells, all tested concentrations, relative to untreated control",significantly reduced adherence
same,decrease of gonococcal adherence,"[3]; tCX cells, 1:20 dilution of sera, relative to no antibody control",8 fold
same,decrease of gonococcal adherence,"[4]; tUEC cells, 1:20 dilution of sera, relative to no antibody control",5 fold
same,"adherence of serum-treated gonococci, in words","[4]; urethral epithelial cells, all tested concentrations, relative to untreated control",significantly reduced adherence
